These results are taken from patent publication US20160151335A1, “METHODS OF MODULATING CFTR ACTIVITY” (PROTEOSTASIS THERAPEUTICS, INC., priority 2013, published 2016).

Test [1] has as its target T1, ΔF508-CFTR (Homo sapiens, UniProt P13569, DEL508-508).
T1 construct: Primary lung epithelial cells (hBEs) homozygous for the Cystic Fibrosis-causing ΔF508 mutation; endogenous in cells; host or cells: primary lung (bronchial) epithelial cells (hBE) homozygous for ΔF508, differentiated at an air-liquid interface
Put plainly: Ussing chamber short-circuit current measurement, CFTRinh-172-inhibitable current. Particulars: 24 h, primary hBE cells homozygous ΔF508, relative to VX-809 (1 uM); for Solo % VX809 (Ussing activity): compound at 10 uM alone; for Combination % VX809 (Ussing activity): compound at 10 uM with VX-809 at 1 uM. The class given is cell-based. On the procedure:
Primary lung epithelial cells (hBEs) homozygous for the Cystic Fibrosis-causing ΔF508 mutation were differentiated for a minimum of 4 weeks in an air-liquid interface on SnapWell filter plates prior to the Ussing measurements. Cells were apically mucus-washed for 30 minutes prior to treatment with compounds. The basolateral media was removed and replaced with media containing the compound of interest diluted to its final concentration from DMSO stocks. Treated cells were incubated at 37° C. and 5% CO2 for 24 hours. At the end of the treatment period, the cells on filters were transferred to the Ussing chamber and equilibrated for 30 minutes. The short-circuit current was measured in voltage clamp-mode (Vhold=0 mV), and the entire assay was conducted at a temperature of 36° C.-36.5° C. Once the voltages stabilized, the chambers were clamped, and data was recorded by pulse readings every 5 seconds. Following baseline current stabilization, the following additions were applied and the changes in current and resistance of the cells monitored: • 1. Benzamil to the apical chamber to inhibit ENaC sodium channel. • 2. Forskolin to both chambers to activate ΔF508-CFTR by phosphorylation. • 3. Genistein to both chambers to potentiate ΔF508-CFTR channel opening. • 4. CFTRinh-172 to the apical chamber to inhibit ΔF508-CFTR Cl− conductance.
The inhibitable current (that current that is blocked by CFTRinh-172) was measured as the specific activity of the ΔF508-CFTR channel, and increases in response to compound in this activity over that observed in vehicle-treated samples were identified as the correction of ΔF508-CFTR function imparted by the compound tested. ++ indicates activity ≧25% of VX-809 (1 uM) with compound at 10 uM and VX-809 at 1 uM; ** indicates activity ≧200% of VX-809 (1 uM) with compound at 10 uM and VX-809 at 1 uM; ** indicates activity 100-200% of VX-809 (1 uM) with compound at 10 uM and VX-809 at 1 uM; The transepithelial resistance (TER) for these compounds are within 30% of DMSO controls.

Test [2] has as its target T1, ΔF508-CFTR. The experiment in a line: hBE equivalent current (Ieq) assay, AUC of equivalent chloride current. The following applies: compound at 10 uM, 24 h, primary hBE cells homozygous ΔF508; AUC increase relative to VX-809 at 1 uM. The class given is cell-based. On the procedure:
Primary lung epithelial cells homozygous for the Cystic Fibrosis-causing ΔF508 mutation were differentiated for a minimum of 4 weeks in an air-liquid interface on Costar 24 well HTS filter plates prior to the equivalent current (Ieq) measurements. Cells were apically mucus-washed for 30 minutes 24 h prior to treatment with compounds. The basolateral media was removed and replaced with media containing the compound of interest diluted to its final concentration from DMSO stocks. Treated cells were incubated at 37° C. and 5% CO2 for 24 hours. At the end of the treatment period, the media was changed to the Ieq experimental solution for 30 minutes before the experiment and plates are maintained in a CO2-free incubator during this period. The plates containing the cells were then placed in pre-warmed heating blocks at 36° C.±0.5 for 15 minutes before measurements are taken. The transepithelial voltage (VT) and conductance (GT) were measured using a custom 24 channel current clamp (TECC-24) with 24 well electrode manifold. The Ieq assay measurements were made following additions with standardized time periods: • 1. The baseline VT and GT values were measured for approximately 20 minutes. • 2. Benzamil was added to block ENaC for 15 minutes. • 3. Forskolin plus VX-770 were added to maximally activate ΔF508-CFTR for 27 minutes. • 4. Bumetanide was added to inhibit the NaK2Cl cotransporter and shut-off secretion of chloride. The activity data captured was the area under the curve (AUC) for the traces of the equivalent chloride current. The AUC was collected from the time of the forskolin/VX-770 addition until the inhibition by bumetanide addition. Correction in response to compound treatment was scored as the increase in the AUC for compound-treated samples over that of vehicle-treated samples. (++ indicates activity ≧25% run at 10 uM of VX-809 at 1 uM, + indicates activity 10 to ≦25% run at 10 uM of VX-809 at 1 uM.

T1 sequence (P13569 with tags, fused parts or gaps DEL508-508): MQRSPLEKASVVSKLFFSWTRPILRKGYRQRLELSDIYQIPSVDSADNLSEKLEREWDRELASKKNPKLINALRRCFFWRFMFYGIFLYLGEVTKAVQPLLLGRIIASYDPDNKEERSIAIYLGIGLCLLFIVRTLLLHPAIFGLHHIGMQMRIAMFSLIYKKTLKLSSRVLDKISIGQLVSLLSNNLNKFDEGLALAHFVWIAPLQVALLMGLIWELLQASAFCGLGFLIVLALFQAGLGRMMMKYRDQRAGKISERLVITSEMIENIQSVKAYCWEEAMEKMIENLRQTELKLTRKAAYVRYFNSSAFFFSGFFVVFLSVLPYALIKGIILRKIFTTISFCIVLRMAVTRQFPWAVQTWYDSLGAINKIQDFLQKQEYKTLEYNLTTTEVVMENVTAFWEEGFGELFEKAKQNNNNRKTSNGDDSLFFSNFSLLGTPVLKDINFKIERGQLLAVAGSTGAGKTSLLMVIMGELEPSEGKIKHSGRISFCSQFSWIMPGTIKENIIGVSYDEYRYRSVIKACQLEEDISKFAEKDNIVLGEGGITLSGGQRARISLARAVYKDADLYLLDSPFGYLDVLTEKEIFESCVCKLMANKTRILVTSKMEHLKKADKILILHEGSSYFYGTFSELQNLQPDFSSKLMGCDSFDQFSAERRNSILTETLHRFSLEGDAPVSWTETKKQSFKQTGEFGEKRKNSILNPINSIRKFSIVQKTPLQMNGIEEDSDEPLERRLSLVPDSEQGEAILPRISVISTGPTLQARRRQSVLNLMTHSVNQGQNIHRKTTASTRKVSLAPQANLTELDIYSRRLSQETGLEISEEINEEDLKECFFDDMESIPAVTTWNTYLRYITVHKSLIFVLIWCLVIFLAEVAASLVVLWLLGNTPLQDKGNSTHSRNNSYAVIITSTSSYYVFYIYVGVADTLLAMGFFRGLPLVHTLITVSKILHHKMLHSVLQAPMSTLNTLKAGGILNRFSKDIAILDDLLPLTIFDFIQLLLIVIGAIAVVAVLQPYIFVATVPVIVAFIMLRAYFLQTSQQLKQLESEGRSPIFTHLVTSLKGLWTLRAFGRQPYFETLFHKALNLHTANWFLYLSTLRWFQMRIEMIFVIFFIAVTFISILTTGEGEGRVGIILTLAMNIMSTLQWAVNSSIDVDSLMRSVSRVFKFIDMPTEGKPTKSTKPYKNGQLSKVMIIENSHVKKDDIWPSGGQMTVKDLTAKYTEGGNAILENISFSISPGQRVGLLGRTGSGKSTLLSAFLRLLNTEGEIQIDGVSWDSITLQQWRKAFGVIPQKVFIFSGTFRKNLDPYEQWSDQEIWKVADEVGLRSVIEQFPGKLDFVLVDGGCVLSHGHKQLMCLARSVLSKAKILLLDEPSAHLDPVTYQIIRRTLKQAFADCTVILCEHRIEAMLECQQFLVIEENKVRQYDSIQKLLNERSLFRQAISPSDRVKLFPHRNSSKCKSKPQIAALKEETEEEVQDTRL

As to `Cc1cn(CCNC(=O)c2cc(-c3ccccc3)on2)nn1` [Compound 9], the “Solo % VX809 (Ussing activity)” value at ΔF508-CFTR [1] was “++ (++ indicates activity ≧25% of VX-809 (1 uM) with compound at 10 uM and VX-809 at 1 uM)”.

For `O=C(NCCCn1ccnc1)c1cc(-c2ccccc2)on1` [Compound 16], at ΔF508-CFTR [1], the “Solo % VX809 (Ussing activity)” value is “++ (++ indicates activity ≧25% of VX-809 (1 uM) with compound at 10 uM and VX-809 at 1 uM)”; the “Combination % VX809 (Ussing activity)” value is “** (** indicates activity ≧200% of VX-809 (1 uM) with compound at 10 uM and VX-809 at 1 uM)”. Besides, the “Ieq hBE Activity” value on ΔF508-CFTR [2] is “++ (++ indicates activity ≧25% run at 10 uM of VX-809 at 1 uM)”. Regarding `Cn1ccnc1SCCNC(=O)c1cc(-c2ccccc2)on1` [Compound 18], at ΔF508-CFTR [1], the “Solo % VX809 (Ussing activity)” value was “++ (++ indicates activity ≧25% of VX-809 (1 uM) with compound at 10 uM and VX-809 at 1 uM)”; the “Combination % VX809 (Ussing activity)” value was “** (** indicates activity ≧200% of VX-809 (1 uM) with compound at 10 uM and VX-809 at 1 uM)”. The “Ieq hBE Activity” value on ΔF508-CFTR [2] is given as “++ (++ indicates activity ≧25% run at 10 uM of VX-809 at 1 uM)”.

Turning to `Nc1nnc(CCCNC(=O)c2cc(-c3ccccc3)on2)s1` [Compound 201], the “Ieq hBE Activity” value on ΔF508-CFTR [2] is on record as “++ (++ indicates activity ≧25% run at 10 uM of VX-809 at 1 uM)”.

`O=C(NCCCn1ncc2ccccc21)c1cc(-c2ccccc2)on1` [Compound 204]: the “Ieq hBE Activity” value at ΔF508-CFTR [2] is recorded as “++ (++ indicates activity ≧25% run at 10 uM of VX-809 at 1 uM)”. In the case of `O=C(NCCCn1nnc2ccccc21)c1cc(-c2ccccc2)on1` [Compound 205], at ΔF508-CFTR [2], the “Ieq hBE Activity” value was “++ (++ indicates activity ≧25% run at 10 uM of VX-809 at 1 uM)”. Still for that read-out and setting: in the case of `O=C(NCCCc1cccnc1)c1cc(-c2ccccc2)on1` [Compound 207] it was “++ (++ indicates activity ≧25% run at 10 uM of VX-809 at 1 uM)”; in that of `O=C(NCCCC(F)(F)F)c1cc(-c2cccs2)on1` [Compound 223], “++ (++ indicates activity ≧25% run at 10 uM of VX-809 at 1 uM)”. Consider `COCCNC(=O)c1cc(-c2cccs2)on1` [Compound 224], for which the “Ieq hBE Activity” value on ΔF508-CFTR [2] is “++ (++ indicates activity ≧25% run at 10 uM of VX-809 at 1 uM)”. Still for that read-out and setting: next, `O=C(NCC1CCCO1)c1cc(-c2cccs2)on1` (stereo not drawn) [Compound 225]: “++ (++ indicates activity ≧25% run at 10 uM of VX-809 at 1 uM)”. Still for that read-out and setting: in the case of `O=C(NCC1CCOC1)c1cc(-c2cccs2)on1` (stereo not drawn) [Compound 226] it was “++ (++ indicates activity ≧25% run at 10 uM of VX-809 at 1 uM)”; in that of `O=C(NCCn1nccn1)c1cc(-c2cccs2)on1` [Compound 228], “++ (++ indicates activity ≧25% run at 10 uM of VX-809 at 1 uM)”; in that of `O=C(NCCN1CCOCC1)c1cc(-c2cccs2)on1` [Compound 229], “+ (+ indicates activity 10 to ≦25% run at 10 uM of VX-809 at 1 uM)”. Same read-out and setting: next, `O=C(NCCC1CCOCC1)c1cc(-c2cccs2)on1` [Compound 230]: “++ (++ indicates activity ≧25% run at 10 uM of VX-809 at 1 uM)”; `O=C(NCCc1ccccn1)c1cc(-c2cccs2)on1` [Compound 232]: “++ (++ indicates activity ≧25% run at 10 uM of VX-809 at 1 uM)”; `O=C(NCCc1cccnc1)c1cc(-c2cccs2)on1` [Compound 233]: “+ (+ indicates activity 10 to ≦25% run at 10 uM of VX-809 at 1 uM)”. As to `O=C(NCCc1ccncc1)c1cc(-c2cccs2)on1` [Compound 234], on ΔF508-CFTR [2], the “Ieq hBE Activity” value is recorded as “++ (++ indicates activity ≧25% run at 10 uM of VX-809 at 1 uM)”. With `O=C(NCCCn1ccnc1)c1cc(-c2cccs2)on1` [Compound 237], the “Ieq hBE Activity” value on ΔF508-CFTR [2] was “++ (++ indicates activity ≧25% run at 10 uM of VX-809 at 1 uM)”.

Take `O=C(NCCCCc1ccncc1)c1cc(-c2cccs2)on1` [Compound 239]: the “Ieq hBE Activity” value on ΔF508-CFTR [2] is recorded as “+ (+ indicates activity 10 to ≦25% run at 10 uM of VX-809 at 1 uM)”. In the case of `CN(CC1CCCO1)C(=O)c1cc(CN2CCOCC2)on1` (stereo not drawn) [Compound 256], the “Ieq hBE Activity” value on ΔF508-CFTR [2] is recorded as “+ (+ indicates activity 10 to ≦25% run at 10 uM of VX-809 at 1 uM)”. With `Cn1nncc1CCCNC(=O)c1cc(-c2ccccc2)on1` [Compound 295], at ΔF508-CFTR [2], the “Ieq hBE Activity” value is listed as “+ (+ indicates activity 10 to ≦25% run at 10 uM of VX-809 at 1 uM)”. Same read-out and setting: next, `O=C(NCC1CCCO1)c1cc(-c2ccco2)on1` (stereo not drawn) [Compound 321]: “+ (+ indicates activity 10 to ≦25% run at 10 uM of VX-809 at 1 uM)”; `COCCNC(=O)c1cc(-c2ccccc2)on1` [Compound 329A]: “++ (++ indicates activity ≧25% run at 10 uM of VX-809 at 1 uM)”.

Regarding `CCNC(=O)c1cc(-c2ccccc2)on1` [Compound 336], the “Ieq hBE Activity” value at ΔF508-CFTR [2] is listed as “++ (++ indicates activity ≧25% run at 10 uM of VX-809 at 1 uM)”. As for `CCCCNC(=O)c1cc(-c2ccc(F)cc2)on1` [Compound 342], the “Ieq hBE Activity” value on ΔF508-CFTR [2] is given as “++ (++ indicates activity ≧25% run at 10 uM of VX-809 at 1 uM)”. The same measure, in the same setting: next, `O=C(N[C@H]1CC[C@H](O)CC1)c1cc(-c2ccccc2)on1` [Compound 343]: “+ (+ indicates activity 10 to ≦25% run at 10 uM of VX-809 at 1 uM)”. On the same count and under the same terms, in the case of `Cc1nnsc1CNC(=O)c1cc(-c2ccccc2)on1` [Compound 344] it was “+ (+ indicates activity 10 to ≦25% run at 10 uM of VX-809 at 1 uM)”; in that of `O=C(Nc1cccnc1)c1cc(-c2ccccc2)on1` [Compound 345], “+ (+ indicates activity 10 to ≦25% run at 10 uM of VX-809 at 1 uM)”.

`O=C(NCCCCO)c1cc(-c2cccs2)on1` [Compound 349]: the “Ieq hBE Activity” value at ΔF508-CFTR [2] is listed as “++ (++ indicates activity ≧25% run at 10 uM of VX-809 at 1 uM)”. Regarding `COCc1nc(CNC(=O)c2cc(-c3ccccc3)on2)no1` [Compound 372], the “Ieq hBE Activity” value on ΔF508-CFTR [2] was “++ (++ indicates activity ≧25% run at 10 uM of VX-809 at 1 uM)”. As to `O=C(NCCNC(=O)c1cc(-c2ccccc2)on1)c1cccnc1` [Compound 373], the “Ieq hBE Activity” value at ΔF508-CFTR [2] is “++ (++ indicates activity ≧25% run at 10 uM of VX-809 at 1 uM)”. As to `CCc1ncc(CCNC(=O)c2cc(-c3ccccc3)on2)s1` [Compound 374], the “Ieq hBE Activity” value on ΔF508-CFTR [2] is recorded as “+ (+ indicates activity 10 to ≦25% run at 10 uM of VX-809 at 1 uM)”. Same read-out and setting: in the case of `Cc1ncc(NCCNC(=O)c2cc(-c3ccccc3)on2)[nH]c1=O` [Compound 375] it was “+ (+ indicates activity 10 to ≦25% run at 10 uM of VX-809 at 1 uM)”; in that of `O=C(NCCn1ccnn1)c1cc(-c2ccccc2)on1` [Compound 376], “++ (++ indicates activity ≧25% run at 10 uM of VX-809 at 1 uM)”; in that of `O=C(NCCn1ccnn1)c1cc(-c2cccs2)on1` [Compound 377], “++ (++ indicates activity ≧25% run at 10 uM of VX-809 at 1 uM)”.
